Results on 31 compounds are retold here after US12421220B2, “Bicyclic-substituted glutarimide cereblon binders” (C4 THERAPEUTICS, INC., priority 2022, dated 2025).

Like-named read-outs stand apart in the source and are kept apart here.

One assay has as its target CRBN-DDB1 (CRBN_DDB1.7) (Homo sapiens, UniProt Q96SW2). In words: Fluorescence polarization (FP) binding assay, CRBN_DDB1.7 construct. To be noted: 0.05% PA, 0.1% BSA. As for the experimental part: (§1) Example 2: Fluorescence Polarization (FP) Assay for Screening Compound Ligand Binders of CRBN-DDB1
(§2) Measuring compound ligand binding to CRBN-DDB 1 was carried out using an established sensitive and quantitative in vitro fluorescence polarization (FP) based binding assay. (See, I. J. Enyedy et al, J. Med. Chem., 44: […] [2001]). Compounds were dispensed from serially diluted DMSO stock into black 384-well compatible fluorescence polarization plates using an Echo acoustic dispenser. Compound binding to CRBN-DDB 1 was measured by displacement of an established CRBN binding ligand conjugated to an Alexa Fluor® dye (probe). A […] mixture containing 10nM CRBN-DDB1 and 5 nM probe in 50 mM Hepes, pH 7.4, 200 mM NaCl, 1% DMSO, 0.1% BSA and 0.05% o pluronic acid-127 acid was added to wells containing compound and incubated at room temperature for 60 min. Matching control wells excluding CRBN-DDB 1 were used to correct for background fluorescence. Plates were read on an Envision plate reader with appropriate FP filter sets. The corrected S (perpendicular) and P (parallel) values were used to calculate fluorescence polarization (FP) with the following equation: FP=1000*(S−G*P)/(S+G*P).
(§3) The fractional amount of bound probe (FB) to CRBN-DDB 1 as a function of compound concentration was fitted according to Wang; FEBS Letters 360, (1995), 111-114 to obtain fits for parameter offsets and binding constant (KA) of competitor compound.
On the technique in general: Fluorescence polarisation rises when a labelled molecule tumbles more slowly, as on binding a larger partner.

A further assay has as its target CRBN-DDB1 (CRBN_DDB1.3) (Homo sapiens, UniProt Q96SW2). In words: Fluorescence polarization (FP) binding assay, CRBN_DDB1.3 construct. To be noted: 0.05% PA, 0.1% BSA. As for the experimental part:
as §1, §2, §3

The mark [1] stands for this setting: indoline binders, read-out: FP CRBN_DDB1.7 0.05% PA, 0.1% BSA ka nM.
Where [2] appears, read: indoline binders, read-out: FP CRBN_DDB1.3 0.05% PA, 0.1% BSA ka nM.
The mark [3] stands for this setting: tetrahydroquinoline binders, read-out: FP CRBN_DDB1.7 0.05% PA, 0.1% BSA ka nM.
[4] abbreviates: tetrahydroquinoline binders, read-out: FP CRBN_DDB1.3 0.05% PA, 0.1% BSA ka nM.
The mark [5] stands for this setting: benzomorpholine binders, read-out: FP CRBN_DDB1.3 0.05% PA, 0.1% BSA Ka nM.

CRBN-DDB1 (CRBN_DDB1.7), sequence (Q96SW2 81-442 limits assumed): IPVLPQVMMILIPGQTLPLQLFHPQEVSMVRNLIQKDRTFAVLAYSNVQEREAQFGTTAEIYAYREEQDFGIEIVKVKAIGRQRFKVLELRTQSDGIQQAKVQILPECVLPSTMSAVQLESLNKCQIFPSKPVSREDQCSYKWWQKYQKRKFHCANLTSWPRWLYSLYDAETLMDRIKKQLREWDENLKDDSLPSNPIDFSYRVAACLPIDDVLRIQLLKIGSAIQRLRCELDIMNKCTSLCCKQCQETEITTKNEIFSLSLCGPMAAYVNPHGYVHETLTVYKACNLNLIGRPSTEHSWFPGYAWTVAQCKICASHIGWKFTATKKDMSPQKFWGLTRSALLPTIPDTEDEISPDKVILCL
CRBN-DDB1 (CRBN_DDB1.3), sequence (Q96SW2 318-426 limits assumed): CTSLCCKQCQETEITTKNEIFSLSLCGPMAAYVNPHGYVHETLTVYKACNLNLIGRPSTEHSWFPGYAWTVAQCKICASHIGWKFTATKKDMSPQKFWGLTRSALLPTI

On to `O=C1CCC(N2CCc3c(N4CCNCC4)cccc32)C(=O)N1` (stereo not shown) [Compound 37-4, 3-(4-piperazin-1-ylindolin-1-yl)piperidine-2,6-dione], for which the Kd on CRBN-DDB1 (CRBN_DDB1.7) (setting [1]) is under 100000 nM. As for `CC(C)(C)OC(=O)N1CCC(c2cccc3c2CCN3[C@@H]2CCC(=O)NC2=O)CC1` (single isomer, unassigned) [Compound 41-4], at CRBN-DDB1 (CRBN_DDB1.7) (setting [1]), the Kd was under 100000 nM. As to `O=C1CC[C@@H](N2CCc3c(N4CCC(O)CC4)cccc32)C(=O)N1` (single isomer, unassigned) [Compound 43-4], at CRBN-DDB1 (CRBN_DDB1.7) (setting [1]), the Kd is under 1000 nM. In the case of `O=C1CC[C@@H](N2CCc3c(N4CCC5(CC4)OCCO5)cccc32)C(=O)N1` (single isomer, unassigned) [Compound 45-4], the results for the Kd at CRBN-DDB1 (CRBN_DDB1.3) (setting [2]) and on CRBN-DDB1 (CRBN_DDB1.7) (setting [1]) were under 100000 nM and under 1000 nM, respectively. In the case of `O=C1CC[C@H](N2CCc3c(N4CCC5(CC4)OCCO5)cccc32)C(=O)N1` (single isomer, unassigned) [Compound 45-3], the Kd was under 1000 nM on CRBN-DDB1 (CRBN_DDB1.3) (setting [2]) and under 100000 nM at CRBN-DDB1 (CRBN_DDB1.7) (setting [1]). `O=C1CCC(N2CCCc3c(N4CCC(O)CC4)cccc32)C(=O)N1` (stereo not shown) [Compound 65-7, 3-[5-(4-hydroxy-1-piperidyl)-3,4-dihydro-2H-quinolin-1-yl]piperidine-2,6-dione]: the Kd at CRBN-DDB1 (CRBN_DDB1.7) (setting [3]) was under 100000 nM. As to `O=C1CCC(N2C(=O)COc3c(Br)cccc32)C(=O)N1` (stereo not shown) [Compound 33-5, 3-(8-bromo-3-oxo-1,4-benzoxazin-4-yl)piperidine-2,6-dione], the Kd at CRBN-DDB1 (CRBN_DDB1.7) (benzomorpholine binders, read-out: FP CRBN_DDB1.7 0.05% PA, 0.1% BSA Ka nM) was at most 100000 nM.

For `CC(C)(C)OC(=O)N1CCC(c2c(F)cc3c(c2F)CCN3[C@@H]2CCC(=O)NC2=O)CC1` (single isomer, unassigned) [Compound 50-9], the Kd at CRBN-DDB1 (CRBN_DDB1.3) (setting [2]) and on CRBN-DDB1 (CRBN_DDB1.7) (setting [1]) was under 100000 nM each time. `CN(C(=O)OC(C)(C)C)C1CCN(c2c(F)ccc3c2CCN3[C@H]2CCC(=O)NC2=O)CC1` (single isomer, unassigned) [Compound 44-8]: on CRBN-DDB1 (CRBN_DDB1.7) (setting [1]), the Kd is under 100000 nM. For `CC(C)(C)OC(=O)N1CCC(c2cccc3c2CCCN3[C@@H]2CCC(=O)NC2=O)CC1` (single isomer, unassigned) [Compound 59-5], the Kd at CRBN-DDB1 (CRBN_DDB1.3) (setting [4]) and at CRBN-DDB1 (CRBN_DDB1.7) (setting [3]) was under 100000 nM throughout. `CC(C)(C)OC(=O)N1CCC(c2c(F)cc3c(c2F)CCN3[C@H]2CCC(=O)NC2=O)CC1` (single isomer, unassigned) [Compound 50-8]: the Kd at CRBN-DDB1 (CRBN_DDB1.3) (setting [2]) and at CRBN-DDB1 (CRBN_DDB1.7) (setting [1]) was under 100000 nM throughout. For `CC(C)(C)OC(=O)N1CCC(c2cccc3c2CCCN3[C@H]2CCC(=O)NC2=O)CC1` (single isomer, unassigned) [Compound 59-6], the Kd on CRBN-DDB1 (CRBN_DDB1.3) (setting [4]) and on CRBN-DDB1 (CRBN_DDB1.7) (setting [3]) was under 100000 nM in each case. Turning to `CN(C(=O)OC(C)(C)C)[C@H]1CC[C@H](c2c(F)ccc3c2CCN3C2CCC(=O)NC2=O)CC1` (single isomer, unassigned) [Compound 46-9a, tert-butyl ((1r,4r)-4-(1-(2,6-dioxopiperidin-3-yl)-5-fluoroindolin-4-yl)cyclohexyl)(methyl)carbamate], the Kd on CRBN-DDB1 (CRBN_DDB1.3) (setting [2]) and at CRBN-DDB1 (CRBN_DDB1.7) (setting [1]) was under 100000 nM throughout. For `CC(C)(C)OC(=O)N1CCC2(CC1)Cc1ccccc1N(C1CCC(=O)NC1=O)C2` (stereo not shown) [Compound 64-7, tert-butyl 1-(2,6-dioxo-3-piperidyl)spiro[2,4-dihydroquinoline-3,4′-piperidine]-1′-carboxylate], the Kd on CRBN-DDB1 (CRBN_DDB1.7) (setting [3]) is under 100000 nM. As for `CN(C(=O)OC(C)(C)C)C1CCN(c2cccc3c2CCN3C2CCC(=O)NC2=O)CC1` (racemic) [Compound 34-5, tert-butyl (1-(1-(2,6-dioxopiperidin-3-yl)indolin-4-yl)piperidin-4-yl)(methyl)carbamate], the Kd on CRBN-DDB1 (CRBN_DDB1.3) (setting [2]) and on CRBN-DDB1 (CRBN_DDB1.7) (setting [1]) was under 100000 nM each time. On to `CC(C)(C)OC(=O)N1CC[C@@H]2CN(c3cccc4c3CCN4[C@@H]3CCC(=O)NC3=O)CC[C@@H]21` (single isomer, unassigned) [Compound 59-9b], for which the Kd at CRBN-DDB1 (CRBN_DDB1.3) (setting [2]) was under 1000 nM. Consider `O=C1CC[C@H](N2CCc3c(N4CCC(CCO)CC4)cccc32)C(=O)N1` (single isomer, unassigned) [Compound 42-5], for which the Kd on CRBN-DDB1 (CRBN_DDB1.3) (setting [2]) and on CRBN-DDB1 (CRBN_DDB1.7) (setting [1]) was under 100000 nM throughout.

As for `CC(C)(C)OC(=O)N1CCC(c2c(F)ccc3c2CCN3[C@@H]2CCC(=O)NC2=O)CC1` (single isomer, unassigned) [Compound 49-7], the Kd on CRBN-DDB1 (CRBN_DDB1.3) (setting [2]) and at CRBN-DDB1 (CRBN_DDB1.7) (setting [1]) was under 100000 nM each time. As for `CC(C)(C)OC(=O)C1CCN(Cc2cccc3c2CCN3[C@H]2CCC(=O)NC2=O)CC1` (single isomer, unassigned) [Compound 54-6], on CRBN-DDB1 (CRBN_DDB1.3) (setting [2]), the Kd was under 100000 nM. `CN(C(=O)OC(C)(C)C)C1CCN(c2c(F)ccc3c2CCN3[C@@H]2CCC(=O)NC2=O)CC1` (single isomer, unassigned) [Compound 44-9]: at CRBN-DDB1 (CRBN_DDB1.7) (setting [1]), the Kd is under 100000 nM. `CC(C)(C)OC(=O)N1CCC(c2ccc3c(c2F)CCN3[C@H]2CCC(=O)NC2=O)CC1` (single isomer, unassigned) [Compound 47-6]: the Kd on CRBN-DDB1 (CRBN_DDB1.3) (setting [2]) and at CRBN-DDB1 (CRBN_DDB1.7) (setting [1]) was under 100000 nM each time. Consider `CC(C)(C)OC(=O)CN1CCC(c2cccc3c2CCCN3[C@@H]2CCC(=O)NC2=O)CC1` (single isomer, unassigned) [Compound 60-4], for which, at CRBN-DDB1 (CRBN_DDB1.3) (setting [4]), the Kd was under 100000 nM. Consider `CC(C)(C)OC(=O)C1CCN(Cc2cccc3c2CCN3C2CCC(=O)NC2=O)CC1` (racemic) [Compound 54-5, tert-butyl 1-[[1-(2,6-dioxo-3-piperidyl)indolin-4-yl]methyl]piperidine-4-carboxylate], for which the Kd at CRBN-DDB1 (CRBN_DDB1.3) (setting [2]) is under 100000 nM. Turning to `CN(C(=O)OC(C)(C)C)[C@H]1CC[C@@H](c2c(F)ccc3c2CCN3C2CCC(=O)NC2=O)CC1` (single isomer, unassigned) [Compound 46-9b, tert-butyl ((1s,4s)-4-(1-(2,6-dioxopiperidin-3-yl)-5-fluoroindolin-4-yl)cyclohexyl)(methyl)carbamate], the Kd at CRBN-DDB1 (CRBN_DDB1.3) (setting [2]) and on CRBN-DDB1 (CRBN_DDB1.7) (setting [1]) was under 100000 nM in each case. For the compound `O=C(O)CN1CCC(c2cccc3c2OCC(=O)N3C2CCC(=O)NC2=O)CC1` (stereo not shown) [Compound 29-5, 2-(4-(4-(2,6-dioxopiperidin-3-yl)-3-oxo-3,4-dihydro-2H-benzo[b][1,4]oxazin-8-yl)piperidin-1-yl)acetic acid], on CRBN-DDB1 (CRBN_DDB1.3) (setting [5]), the Kd is at most 100000 nM. As for `CNC1CCN(c2cccc3c2O[C@H](C)CN3C2CCC(=O)NC2=O)CC1` (stereo partly drawn) [Compound 18-10, 3-[(2R)-2-methyl-8-[4-(methylamino)-1-piperidyl]-2,3-dihydro-1,4-benzoxazin-4-yl]piperidine-2,6-dione], the Kd at CRBN-DDB1 (CRBN_DDB1.3) (setting [5]) was at most 100000 nM. As for `O=C1CCC(N2CCOc3c(N4CCNCC4)cccc32)C(=O)N1` (stereo not shown) [Compound 10-10, 3-(8-(piperazin-1-yl)-2H-benzo[b][1,4]oxazin-4(3H)-yl)piperidine-2,6-dione], on CRBN-DDB1 (CRBN_DDB1.3) (setting [5]), the Kd is at most 100000 nM. As for `O=C1CC[C@H](N2CCc3c(N4CCC(CO)CC4)cccc32)C(=O)N1` (single isomer, unassigned) [Compound 53-5], the Kd on CRBN-DDB1 (CRBN_DDB1.3) (setting [2]) is under 1000 nM. On to `O=C1CC[C@H](N2CCc3c(N4CCC(O)CC4)cccc32)C(=O)N1` (single isomer, unassigned) [Compound 43-5], for which the Kd on CRBN-DDB1 (CRBN_DDB1.7) (setting [1]) is under 100000 nM.

On to `O=C1CCN(c2cccc3c2OCCN3C2CCC(=O)NC2=O)CC1` (stereo not shown) [Compound 6-12, 3-(8-(4-oxopiperidin-1-yl)-2,3-dihydro-4H-benzo[b][1,4]oxazin-4-yl)piperidine-2,6-dione], for which, at CRBN-DDB1 (CRBN_DDB1.3) (setting [5]), the Kd is at most 100000 nM. In the case of `CC(C)(C)OC(=O)N1CCC(c2cccc3c2CCN3[C@H]2CCC(=O)NC2=O)CC1` (single isomer, unassigned) [Compound 41-5], the Kd at CRBN-DDB1 (CRBN_DDB1.7) (setting [1]) was under 1000 nM.
